ChEMBL document CHEMBL1201862, “PubChem BioAssay data set” (2004)
Calls of active or inactive are those of the source.

How the values were obtained:
[1] = inhibitors of SNCA 5'UTR-driven reporter translation, confirmation, H4 neuroglioma cells, luminescence (AID 1988); type: functional, cell-based
[2] = inhibitors of firefly luciferase expression or activity, dose response, H4 neuroglioma cells, luminescence (AID 1990); type: functional, cell-based
[3] = Luminescence Cell-Based Dose Response HTS to Identify Inhibitors of 5'UTR Stem-Loop Driven Prion Protein mRNA Translation in H4 Neuroglioblastoma Cells. [Related pubchem assays: 1827 (Project Summary), 1813 (Primary HTS)]; type: functional
Cytochrome P450 2C19 = Cytochrome P450 2C19 (Homo sapiens, UniProt P33261); experiment: Cytochrome panel assay with activity outcomes. Panel member name: p450-cyp2c19 Compounds with AC50 equal or less than 10 uM are considered active; type: functional
Chain of Cytochrome P450 2C19 (P33261 whole entry): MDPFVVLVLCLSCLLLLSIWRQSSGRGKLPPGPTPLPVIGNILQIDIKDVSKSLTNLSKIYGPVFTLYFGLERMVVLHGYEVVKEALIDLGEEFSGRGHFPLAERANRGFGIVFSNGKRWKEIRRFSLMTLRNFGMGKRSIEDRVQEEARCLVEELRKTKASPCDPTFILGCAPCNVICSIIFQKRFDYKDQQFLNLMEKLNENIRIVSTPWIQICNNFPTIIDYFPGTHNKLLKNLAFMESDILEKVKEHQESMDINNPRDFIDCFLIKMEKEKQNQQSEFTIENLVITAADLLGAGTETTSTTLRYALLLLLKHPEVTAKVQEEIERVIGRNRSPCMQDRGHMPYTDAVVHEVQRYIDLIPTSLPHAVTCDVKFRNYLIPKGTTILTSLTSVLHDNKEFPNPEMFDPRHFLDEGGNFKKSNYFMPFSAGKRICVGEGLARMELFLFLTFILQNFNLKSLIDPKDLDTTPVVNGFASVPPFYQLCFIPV

[4] = cytotoxicity toward NIH3T3 fibroblasts, dose response, counter-screen, cell-based, ATP luminescence, mouse fibroblasts (AID 2010); type: functional;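 note: cells exposed to compound for about 90 hours before reading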
[5] = inhibitors of intracellular T. cruzi replication, confirmation, NIH3T3 host cells, beta-gal luminescence (AID 2044); type: functional, cell-based;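 note: intracellular parasites grown in NIH/3T3 mouse fibroblasts as host cells; luminescent beta-galactosidase reporter signal from transgenic T. cruzi replicating inside host cells; inhibitors lower the luminescence signal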
[6] = molecular target: T1, Corticotropin-releasing factor receptor 2/Corticotropin-releasing factor-binding protein (Homo sapiens, UniProt P24387+Q13324); experiment: activators of CRF receptor 2 with binding protein – uHTS hits, confirmation (AID 602473); type: functional; settings: read-out: EC50_Mean
T1 sequence (Q13324 whole entry): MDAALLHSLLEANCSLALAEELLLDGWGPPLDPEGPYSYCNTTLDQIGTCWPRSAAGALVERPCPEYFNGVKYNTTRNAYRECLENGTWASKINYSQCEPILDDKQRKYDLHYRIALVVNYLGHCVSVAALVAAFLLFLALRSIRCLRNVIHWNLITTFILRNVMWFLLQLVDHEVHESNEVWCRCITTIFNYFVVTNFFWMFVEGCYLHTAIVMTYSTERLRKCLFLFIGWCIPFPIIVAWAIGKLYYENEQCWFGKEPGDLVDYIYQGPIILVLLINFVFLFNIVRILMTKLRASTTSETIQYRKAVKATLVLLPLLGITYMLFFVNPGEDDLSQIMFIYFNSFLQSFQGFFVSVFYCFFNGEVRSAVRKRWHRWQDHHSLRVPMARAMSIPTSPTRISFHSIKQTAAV
T1 sequence (P24387 whole entry): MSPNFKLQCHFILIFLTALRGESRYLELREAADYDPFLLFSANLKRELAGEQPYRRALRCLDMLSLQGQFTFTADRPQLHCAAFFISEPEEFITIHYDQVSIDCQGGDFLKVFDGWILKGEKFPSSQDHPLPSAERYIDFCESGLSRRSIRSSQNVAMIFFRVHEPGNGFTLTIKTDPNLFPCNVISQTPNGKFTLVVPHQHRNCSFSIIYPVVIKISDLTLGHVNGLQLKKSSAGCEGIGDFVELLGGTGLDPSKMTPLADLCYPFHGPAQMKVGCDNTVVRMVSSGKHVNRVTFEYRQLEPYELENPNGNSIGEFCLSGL

| Compound | EC50 [1] | EC50 [2] | EC50 [3] | EC50 [4] | EC50 [5] | other results |
| --- | --- | --- | --- | --- | --- | --- |
| Cc1ccc2c(c1)N1C(=O)c3ccccc3C1C1=C(O)CC(C)(C)CC1=N2 (stereo not given) | > 120 µM (not active) | > 120 µM (not active) | 18.1 µM (active) | – | – | – |
| O=S(=O)(c1ccccc1)N1CCC2(CC1)OCCO2 | > 120 µM (not active) | > 120 µM (not active) | 6.97 µM (active) | – | – | – |
| Nc1nc(NCCCN2CCOCC2)nc(Nc2ccccc2)c1[N+](=O)[O-] | > 120 µM (not active) | 40.7 µM (active) | 19 µM (active) | – | – | – |
| CC(C)NC(=O)c1ccccc1NC(=O)/C=C/c1cccc([N+](=O)[O-])c1 | 9.29 µM (active) | 8.64 µM (active) | 11.3 µM (active) | – | – | – |
| CC(C)NC(=O)N1CCC2(CC1)CCN(S(C)(=O)=O)CC2 | – | – | – | – | – | AC50 (Cytochrome P450 2C19; read-out: AC50): 39.8 µM (inconclusive) |
| Cc1c(C(=O)NCC2COc3ccccc3O2)oc2ccc(S(=O)(=O)N3CC(C)CC(C)C3)cc12 (stereo not given) | – | – | – | > 60 µM (not active) | 1.79 µM (active) | – |
| Cc1cccc(NC(=O)CSc2nnc(C)c(=O)n2N)c1C | > 120 µM (not active) | > 120 µM (not active) | > 120 µM (not active) | – | – | – |
| Cc1ccc(Sc2nc(-c3ccccc3)ccc2C#N)cc1 | – | – | – | – | – | AC50 (Cytochrome P450 2C19; read-out: AC50): 0.631 µM (inconclusive) |
| NC(=NOC(=O)c1cc([N+](=O)[O-])ccc1Cl)c1cccnc1 | > 120 µM (not active) | > 120 µM (not active) | > 120 µM (not active) | – | – | – |
| CC(=O)NCCC(=O)Nc1cc(S(=O)(=O)N2CCCCC2)ccc1N1CCN(C)CC1 | – | – | – | > 30 µM (not active) | 0.231 µM (active) | – |
| CN1CCN(CC2(O)CCN(S(=O)(=O)c3ccc(Cl)cc3)CC2)CC1 | – | – | – | > 60 µM (not active) | 1.11 µM (active) | – |
| CC1(C)Cc2c(ccc3ccccc23)C(c2cc3ccccc3oc2=O)=N1 | > 120 µM (not active) | 11.1 µM (active) | 21.5 µM (active) | – | – | – |
| Cn1c(=N)n(CC(=O)c2ccc(Cl)c(Cl)c2)c2ccccc21 | 9.54 µM (active) | 6.07 µM (inconclusive) | 13.5 µM (active) | – | – | – |
| Cc1nn(Cc2ccccc2Cl)c(C)c1C(=O)NC1CCCc2ccccc21 (stereo not given) | 58 µM (active) | 17.1 µM (active) | 103 µM (active) | – | – | – |
| Cc1onc(-c2ccccc2Cl)c1C(=O)N(Cc1ccc(N(C)C)cc1)C(C)C | > 120 µM (not active) | 22.5 µM (active) | > 120 µM (not active) | – | – | – |
| CCN(Cc1ccc(O)cc1)CC1CCCN(CCc2cccc(F)c2)C1 (stereo not given) | – | – | – | 40.3 µM (active) | 0.69 µM (active) | – |
| CCC(NCCC1=CCCCC1)=C1C(=O)NC(=O)NC1=O | > 120 µM (not active) | > 120 µM (not active) | > 120 µM (not active) | – | – | – |
| Cc1ccc(C)c(NC(=O)c2ccccc2O)c1 | – | – | – | – | – | EC50 [6]: > 53 µM (inactive) |
| O=C(CCCCCn1c(=S)[nH]c2ccc(N3CCOCC3)cc2c1=O)NC1CCN(Cc2ccccc2)CC1 | – | – | – | > 60 µM (not active) | 0.595 µM (active) | – |
| CCN(CC)CCN(C(=O)c1ccc(S(=O)(=O)N2CCCCC2)cc1)c1nc2cc3c(cc2s1)OCO3 | – | – | – | > 60 µM (not active) | 0.213 µM (active) | – |
| COc1cc(CNC(=O)c2nc(Cn3nc(C)c(Br)c3C)no2)cc(OC)c1 | 42.7 µM (active) | > 120 µM (not active) | > 120 µM (not active) | – | – | – |
| COc1cc(NC(=O)CCN2CCN(C/C=C/c3ccccc3)CC2)cc(OC)c1 | – | – | – | > 60 µM (not active) | 0.918 µM (active) | – |

| Compound | EC50 [1] | EC50 [2] | EC50 [3] | EC50 [4] | EC50 [5] | other results |
| --- | --- | --- | --- | --- | --- | --- |
| CCC/C=C(\CCC)C(NC(=O)C(C)(C)C)c1ccc(C(=O)OC)cc1 (stereo not given) | – | – | – | – | – | AC50 (Cytochrome P450 2C19; read-out: AC50): 39.8 µM (inconclusive) |
| O=C(CCc1ccc(S(=O)(=O)NCc2ccccc2)cc1)N1CCN(Cc2ccc3c(c2)OCO3)CC1 | – | – | – | > 30 µM (not active) | 0.897 µM (active) | – |
| O=C(OCc1ccccc1)c1cn(-c2ccccc2)nc1-c1ccncc1 | – | – | – | 33.5 µM (active) | 1.14 µM (active) | – |
| COc1cccc(-c2nc(CS(=O)(=O)CC(=O)NCCc3ccc(C)cc3)c(C)o2)c1 | > 120 µM (not active) | > 120 µM (not active) | > 120 µM (not active) | – | – | – |
| NC(S)=Nc1cccc2[nH]ccc12 | – | – | – | > 30 µM (not active) | – | – |
| CCc1ccc(-c2nc(CSCC(=O)N3CCN(c4ccccn4)CC3)c(C)o2)cc1 | 12 µM (active) | 8.61 µM (active) | 15 µM (active) | – | – | – |
| COC(=O)c1sc(NC(=S)NC(=O)c2cccc(C)c2)nc1C | – | – | – | – | – | EC50 [6]: 9.05 µM (active) |
| Cc1ccccc1N1C(=O)NC(=O)/C(=C\c2ccc3c(c2)CCCN3Cc2ccccc2)C1=O | – | – | – | – | – | EC50 [6]: 14.2 µM (active) |
| Cc1ccc(-n2nnc(-c3nccs3)n2)cc1 | 1.41 µM (active) | 4.02 µM (active) | 0.985 µM (active) | – | – | – |
| CC(C)c1ccc(C(O)P(=O)(OC2CCCCC2)OC2CCCCC2)cc1 (stereo not given) | > 120 µM (not active) | > 120 µM (not active) | 19.2 µM (active) | – | – | – |
| Cc1cc(C)c(S(=O)(=O)N2CCN(c3ccc([N+](=O)[O-])c(-n4nc(C)cc4C)c3)CC2)c(C)c1 | – | – | – | > 60 µM (not active) | 1.83 µM (active) | – |
| CCc1c(C#N)c(SCCC(=O)Nc2ccc(F)cc2)nc2c1C(=O)CC(C)(C)C2 | – | – | – | > 60 µM (not active) | 0.996 µM (active) | – |
| O=C(Nc1ccc(N2CCCCC2)cc1)c1cc([N+](=O)[O-])cc([N+](=O)[O-])c1 | – | – | – | > 60 µM (not active) | 0.411 µM (active) | – |
| COc1ccc(-n2c(S)nnc2CNC(=O)c2cc(OC)c(OC)c(OC)c2)cc1 | – | – | – | – | – | AC50 (Cytochrome P450 2C19): inconclusive |
| COc1ccc(N(CC(=O)NN=C2CCCC2)S(=O)(=O)c2ccccc2)cc1Cl | – | – | – | – | – | EC50 [6]: 4.37 µM (active) |
| CN1c2ccccc2Oc2c(c(=O)n(C)c(=O)n2C)C1c1cccc([N+](=O)[O-])c1 (stereo not given) | – | – | – | – | – | AC50 (Cytochrome P450 2C19; read-out: AC50): 14.1 µM (inconclusive) |
| CCOc1ccc(NS(=O)(=O)c2ccc(C(=O)NCC3(N4CCCCC4)CCCCC3)cc2)cc1 | – | – | – | – | – | EC50 [6]: 6.45 µM (active) |
| O=C(O)c1ccccc1N/N=C\c1ccnc2ccccc12 | 7.78 µM (active) | – | 11.1 µM (active) | – | – | – |
| C#CCn1/c(=N/C(=O)c2ccc(S(=O)(=O)N3CCCc4ccccc43)cc2)sc2cc(S(N)(=O)=O)ccc21 | – | – | – | > 60 µM (not active) | 0.819 µM (active) | – |
| Cc1ccc2sc(N3CCN(C(=O)c4ccc([N+](=O)[O-])o4)CC3)nc2c1C | – | – | – | > 30 µM (not active) | 0.119 µM (active) | – |
| O=c1c(-c2ccc(O)cc2)coc2cc(O)cc(O)c12 [GENISTEIN] | – | – | – | – | – | AC50 (Cytochrome P450 2C19; read-out: AC50): 10 µM (inconclusive) |
